What was measured:
[1] = system: Raf-1; experiment: Raf-1 expression in SQ-20B tumor xenografts after i.v. or intratumoral ODN; format: in vivo, human; details: intravenous treatment; compared with untreated controls
Description: FIG. 7: Effects of intravenous administration of LE-ATG-AS raf ODN (SEQ ID NO:1) our Raf-1 expression in normal and tumor tissues. Raf-1 expression was examined in liver, kidneys and SQ-20B tumor xenograft of Balb/c nu/nu mice after i.v. injections of 6 mg/kg daily dose of LE-ATG-AS raf ODN (SEQ ID NO:1) (AS) or LE-ATG-S raf ODN (SEQ ID NO:3) (S) for five consecutive days. Control mice (C) received normal saline. Representative data showing Raf-1 expression in lysates normalized for protein content by immunoprecipitation and immunoblotting (top). Quantification data are shown as mean±s.d. from three mice (bottom).
FIG. 8: Inhibition of Raf-1 protein expression in SQ-20B tumor xenografts by intratumoral administration of LE-ATG-AS raf ODN (SEQ ID NO:1): Each animal received intratumoral injections of LE-ATG-AS raf ODN (SEQ ID NO:1) (AS) on the right flank and LE-ATG-S raf ODN (SEQ ID NO:3) (S) on the left flank at a dose of 4 mg/kg daily for seven days as explained in the experimental procedures. […] Quantification data shown are mean±s.d., from three representative mice. […]
For in vivo expression studies, tumor tissue and organs were homogenized in the cell lysis buffer using Polytron homogenizer (Westbury, N.Y., USA). Raf-1 expression was analyzed in tissue homogenates by immunoprecipitation and immunoblotting as described above.

[2] = system: Raf-1; experiment: Raf-1 immunoprecipitation and immunoblotting in SQ-20B cells (5132, LE-5132, LE-10353); format: cell-based, human
Description: FIG. 9: Antisense sequence-specific inhibition of Raf-1 expression in SQ-20B cells. (A) Logarithmically growing SQ-20B cells were treated with indicated ODN concentrations of LE-5132 (SEQ ID NO:4) (lanes 3, 5 and 10), 5132 (SEQ ID NO:4) (lanes 4 and 6), or LE-10353 (SEQ ID NO:5) (lane 9) as described in Materials and Methods. Control cells were either left untreated (lanes 1 and 7) or treated with 1 uM blank liposomes (BL) (lanes 2 and 8). Whole cell lysates were normalized for total protein content and immunoprecipitated with agarose-conjugated polyclonal anti-Raf-1 antibody. Immune complexes were resolved by 7.5% SDS-PAGE and immunoblotted with polyclonal anti-Raf-1 antibody. (B) Data from three independent experiments were quantified and expressed relative to the level of Raf-1 in untreated cells.
On day two, cells were rinsed with fresh 30% FBS, followed by a second course of the treatment schedule as on day one for an additional 24 hours. This procedure yielded a minimal exposure of cells of LE-5132 (SEQ ID NO:4) 12 hours). […] The lysates were clarified by centrifugation at 16,000 g for 20 minutes, and the protein concentrations were determined (Pierce, Rockford, Ill.). […] The Raf-1 protein level was quantified using the computer software program Image-Quant (Molecular Dynamics, Sunnyvale, Calif.).

[3] = system: SQ-20B tumor xenografts; experiment: SQ-20B tumor xenograft growth (LE-5132, 5132, ionizing radiation); format: in vivo, Balb/c nu/nu mice; details: 10 mg/kg i.v. daily 7 days then three doses on alternate days; day 35
Description: FIG. 13: Effect of LE-5132 (SEQ ID NO:4) on […] tumor growth. SQ-20B rumor cells (2×10^6) were injected a.c. into the left flank region of each male Balb/c nu/nu mouse, 10–12 weeks old. Tumor xenografts were grown to a mean tumor volume of 94±6.4 mm^3, and the animals were randomized into two treatment groups. Day 0 represents the first day of treatment. […] The data shown are mean±SE of 5–7 animals per group.
FIG. 15: Effect of LE-5132 (SEQ ID NO:4) and ionizing radiation on SQ-20B rumor growth. (A) SQ-20B tumor xenografts were grown in male Balb/c nu/nu mice as described. Animals bearing a mean tumor volume of 72.0±4.3 mm^3 were randomized into five treatment groups. Day 0 represents the first day of treatment. […]
Logarithmically growing SQ-20B cells were injected s.c. (2×10^o cells) in the left flank region in male Balb/c nu/nu mice under mild anesthesia. […] Volumes for tumors were determined from caliper measurements of the three major axes (a, b, c) and calculated using abc/2, an approximation for the volume of an ellipse (πabc/6).
For each experiment, tumor-bearing mice were randomly divided into different treatment group, with 5–7 animals per group. […] Using TLD dosimetry, the average dose rate to the center of the tumor and to the mouse body were determined beforehand using the experimental irradiation conditions and a custom-made, tissue-equivalent, mouse phantom. […]

[4] = mouse, in vivo, iv, 30 mg/kg
Description: FIG. 11: The plasma concentration-time profile of LE-5132 (SEQ ID NO:4) and 5132 (SEQ ID NO:4); 30 mg/kg LE-5132 (SEQ ID NO:4) or 5132 (SEQ ID NO:4) was administered i.v. in Balb/c nu/nu mice. Blood samples were collected from the retroorbital sinus at indicated times after injection, and ODN in plasma samples was extracted and analyzed by denaturing gel electrophoresis as described. […] Quantification data were calculated based on comparison with known concentrations of the standard samples and then normalized against sample dilution factors used for loading.
Male Balb/c nu/nu mice (National Cancer Institute, Frederick, Md.) were maintained in the Division of Comparative Medicine, Georgetown University, according to accredited procedures, and fed purina chow and water ad libitum. Mice were injected i.v. via the tail vein with 30 mg/kg of LE-5132 (SEQ ID NO:4) or 5132 (SEQ ID NO:4) formulated in PBS. At 5, 15, and 30 minutes and 1, 2, 4, 8, 24, and 48 hours after injection, animals were bled, under anesthesia, from the retroorbital sinus into heparinized tubes and killed by cervical dislocation. The blood was centrifuged immediately at 300 g for 10 minutes at 4° C. to separate the plasma. The liver, spleen, kidney, heart, and lungs were rapidly excised and rinsed in ice-cold normal saline. The plasma and organs were stored at −70° C. until further analysis.
Antisense raf ODN concentrations in plasma and tissue samples were detected as we described earlier (Gokhale et al., 1997). Briefly, the ODN was isolated from plasma samples using the phenol-chloroform extraction method and from tissues using a DNA extraction kit (Stratagene, La Jolla, Calif.). The raf ODN concentration standards were prepared by adding known amounts of 5132 (SEQ ID NO:4) in blank plasma or blank tissue samples, followed by extraction as described earlier. The extracts were loaded onto 20% pblyacrylamide/8 M urea gels and electrophoresed in TBE buffer. The gels were electroblotted onto nylon membranes in 0.5×TBE buffer at 20 V for one hour, and the blots were probed with [^32P]-labeled sense raf ODN probe in Quickhyb buffer (Stratagene) at 30° C. overnight. A 10–50-fold excess of the probe was used to ensure saturation of all bands. The autoradiographs were scanned using a computer program (Image-Quant software), and the amounts of antisense raf ODN in the samples were calculated by comparison with standards.

| Substance | effect on Raf-1 expression in tumor tissue [1] | effect on Raf-1 expression in cell culture [2] | mean tumor volume compared with day 0 (100%) [3] | AUCarea [4] [ng·h/mL] | CL (total body clearance) [4] [mL/min/kg] | Cmax (peak plasma concentration) [4] [ng/mL] | Vdarea (volume of distribution) [4] [L/kg] | initial distribution half-life [4] [h] | t1/2β (elimination half-life) [4] [h] | terminal half-life (t1/2β) [4] [h] |
| --- | --- | --- | --- | --- | --- | --- | --- | --- | --- | --- |
| 5′-GCAT-CAATGGAGCAC-3′ (sense GCATCAATGGAGCAC; listed as DNA, chemistry not fully specified) [ATG-S raf ODN] | no effect |  |  |  |  |  |  |  |  |  |
| 5′-TCC-CGC-CTG-TGA-CAT-GCA-TT-3′ [compound 5132] |  | ineffective | 159.6%±10.0% | 6200 | 80.3 | 13570 | 29.96 | 0.36 | 4.30 | 4.3 |
